In patent US10874626B2, “Formulation for use in a method of treatment of pain” (NEVAKAR Inc., priority 2016, dated 2020):

Tests used:
Male ICR mice = assay: Mouse RotoRod/Acelerorod test; settings: 15 minute IV infusion, 10 mg Acetaminophen/mL, 8 mg Gabapentin/mL, 1, 2, 4, 6 h
Experimental: Mouse tail flick test was conducted to evaluate test somatic pain and mouse rotorod/acelorod test evaluated behavioral changes, specifically somnolence or dizziness
In each case a positive control was administered as described below.
Male ICR mice were trained on a RotoRod/Acelerod at a continuous accelerating speed from 4 to 30 rpm/min during a time period of 4 minutes for at least 3 times on day 0. Vehicle or test article at a single dose is administered by intravenous infusion over 15 minutes starting 30 minutes before the test period starts and chlorpromazine (30 mg/kg, PO) was administered by oral gavage 60 minutes before the start of the test period. At 1, 2, 4, and 6 hours after the start of the test the mice are placed on the accelerating rotorod (increasing from 4 to 30 rpm/min during a 4 min period) and the time (seconds) the mouse remained on the rotorod was recorded. One-way ANOVA followed by Dunnett's test is applied for comparison between vehicle control and test article groups. P<0.05 is considered significant.
A baseline was measured before administration of the test agents and at 1, 2, 4 and 6 h post the start of the study. The effect of the compounds was evaluated in the standard RotoRod/Acelerorod test.

[1] = test system: beagle dog whole blood (male), red blood cells; assay: In vitro hemolysis test, dog blood; settings: dog whole unclotted blood, concentrations tested, 15 min at 37° C.
Experimental: (§1) APAP and GBP alone or in combination were evaluated in the in vitro hemolysis test using four biologic matrices (mouse, rat, dog and human whole unclotted blood) to determine the hemolytic potential for each on red blood cells.

[2] = test system: rat whole blood (male), red blood cells; assay: In vitro hemolysis test, rat blood; settings: rat whole unclotted blood, concentrations tested, 15 min at 37° C.
Experimental: as §1

[3] = oral; cited from earlier work
[4] = test system: human (pooled) whole blood, red blood cells; assay: In vitro hemolysis test, human blood; settings: human whole unclotted blood, concentrations tested, 15 min at 37° C.
Experimental: as §1

[5] = test system: mouse whole blood (male), red blood cells; assay: In vitro hemolysis test, mouse blood; settings: mouse whole unclotted blood, concentrations tested, 15 min at 37° C.
Experimental: as §1

[6] = Stability of GBP in presence of different stabilizers and solvents; format: physicochemical; settings: GBP 9 mg/mL in acetate buffer, PVP 10 mg/mL
Experimental: GBP containing formulations were prepared by dissolving GBP to a concentration of 9 mg/mL in acetate buffer. A first set of samples were tested for assay and impurities after the initial preparation of formulation, Another set of samples were steam sterilized at 121° C. for 15 min and were tested for assay and impurity levels.

Male rats = assay: Toxicologic profile in rats (clinical pathology, necropsy, histopathology); settings: 24 h after 15 minute IV infusion, infusion site, lung, liver, kidney
[7] = Koshy et al; cited from earlier work

Compound | motor control (time on rotorod) compared to the vehicle control (Male ICR mice) | Interpretation of hemolysis [1] | Interpretation of hemolysis [2] | Plasma concentrations versus dose [3] | Interpretation of hemolysis [4] | Interpretation of hemolysis [5] | stability of GBP with stabilizer [6] | histopathology compared to the vehicle control (Male rats) | pH range in which hydrolysis of APAP is minimum [7]
1-(aminomethyl) cyclohexane acetic acid [Gabapentin] | no statistically significant decrease in motor control | not considered to be hemolytic | not considered to be hemolytic | proportional with dose up to 1800 mg daily and then plateau at approximately 3600 mg daily | not considered to be hemolytic | not considered to be hemolytic | more stable | no changes in the histopathology in any tissue sampled | –
CC(=O)Nc1ccc(O)cc1 [Acetaminophen, acetaminophen] | no statistically significant decrease in motor control | not considered to be hemolytic | not considered to be hemolytic | – | not considered to be hemolytic | not considered to be hemolytic | – | – | 5-7
